Reference: ChEMBL document CHEMBL5226349, “Novel Antimicrobial 8-Hydroxyquinoline-Based Agents: Current Development, Structure-Activity Relationships, and Perspectives” (J Med Chem, 2021)
In brackets after ≈: the same amount, converted by molar mass.

How the values were obtained:
Microsporum = assay: Antifungal activity against Microsporum; assay type: functional
Trichophyton = assay: Antifungal activity against Trichophyton; assay type: functional
[1] = Inhibition of Aeromonas proteolytica aminopeptidase; design: species or system Vibrio proteolyticus
[2] = test system: Mycobacterium tuberculosis; assay: Antibacterial activity against Mycobacterium tuberculosis; assay type: functional
Aspergillus niger = assay: Antifungal activity against Aspergillus niger; assay type: functional
Candida albicans = assay: Antifungal activity against Candida albicans; assay type: functional
Nakaseomyces glabratus = assay: Antifungal activity against Candida glabrata; assay type: functional
[3] = Cytotoxicity against human HeLa cells; assay type: toxicity, cell-based
[4] = Inhibition of Mycobacterium tuberculosis Zmp1
[5] = Inhibition of Mycobacterium tuberculosis FBA
Chlamydia = assay: Antibacterial activity against Chlamydia; assay type: functional
Chlamydia trachomatis = assay: Bactericidal activity against Chlamydia trachomatis; assay type: functional
[6] = Inhibition of human zinc metalloprotease
[7] = Inhibition of bacterial New Delhi metallo-beta-lactamase 1; design: species or system Bacteria
[8] = Inhibition of bacterial VIM-2; design: species or system Bacteria
[9] = test system: Mycobacterium tuberculosis; assay: Antibacterial activity against aged non-growing Mycobacterium tuberculosis; assay type: functional
[10] = Inhibition of Mycobacterium tuberculosis MetAP1a
[11] = Inhibition of Mycobacterium tuberculosis MetAP1c
[12] = target: Methionine aminopeptidase 1 (Homo sapiens, UniProt P53582); assay: Inhibition of human MetAP1
[13] = target: Methionine aminopeptidase 2 (Homo sapiens, UniProt P50579); assay: Inhibition of human MetAP2
Sequence of Methionine aminopeptidase 2 (P50579 whole entry): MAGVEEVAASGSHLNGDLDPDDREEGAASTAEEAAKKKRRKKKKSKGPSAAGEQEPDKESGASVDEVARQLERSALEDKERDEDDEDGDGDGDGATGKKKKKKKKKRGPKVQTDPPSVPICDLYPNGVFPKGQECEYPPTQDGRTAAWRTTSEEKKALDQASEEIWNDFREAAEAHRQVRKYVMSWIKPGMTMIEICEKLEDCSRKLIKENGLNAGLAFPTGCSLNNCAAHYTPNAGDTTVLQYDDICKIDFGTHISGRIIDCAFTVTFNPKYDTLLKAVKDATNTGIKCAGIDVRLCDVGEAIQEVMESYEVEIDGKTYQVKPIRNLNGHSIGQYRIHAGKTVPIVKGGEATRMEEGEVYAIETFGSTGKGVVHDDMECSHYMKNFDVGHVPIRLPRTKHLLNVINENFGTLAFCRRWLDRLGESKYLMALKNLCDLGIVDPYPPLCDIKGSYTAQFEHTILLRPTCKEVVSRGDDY

[14] = target: Botulinum neurotoxin type F (Clostridium botulinum, UniProt P30996); assay: Inhibition of Botulinum neurotoxins/F
Sequence of Botulinum neurotoxin type F (P30996 1-436 limits assumed): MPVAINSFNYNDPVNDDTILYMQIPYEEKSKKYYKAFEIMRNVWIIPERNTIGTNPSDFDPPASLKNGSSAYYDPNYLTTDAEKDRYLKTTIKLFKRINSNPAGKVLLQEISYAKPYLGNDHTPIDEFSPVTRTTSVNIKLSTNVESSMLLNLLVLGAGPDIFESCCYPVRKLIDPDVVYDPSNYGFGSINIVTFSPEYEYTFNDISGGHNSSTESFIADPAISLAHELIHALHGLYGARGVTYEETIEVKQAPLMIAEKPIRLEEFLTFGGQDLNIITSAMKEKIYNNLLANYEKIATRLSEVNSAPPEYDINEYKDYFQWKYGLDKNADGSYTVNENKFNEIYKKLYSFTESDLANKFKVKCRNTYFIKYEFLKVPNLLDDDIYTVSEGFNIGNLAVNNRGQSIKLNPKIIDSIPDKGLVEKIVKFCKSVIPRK

Enterococcus faecalis [15] = assay: Antibacterial activity against Enterococcus faecalis; assay type: functional
Salmonella typhimurium [16] = assay: Antibacterial activity against Salmonella typhimurium; assay type: functional, Salmonella enterica subsp. enterica serovar Typhimurium; settings: Salmonella enterica
Candida = assay: Antifungal activity against Candida; assay type: functional
Arthrodermataceae = assay: […] activity against Arthrodermataceae; assay type: functional
Staphylococcus aureus [17] = assay: Antibacterial activity against Staphylococcus aureus ATCC 25923; assay type: functional
Staphylococcus aureus [18] = assay: Antibacterial activity against Staphylococcus aureus ATCC 29213; assay type: functional
[19] = test system: Staphylococcus epidermidis; assay: Antibacterial activity against Staphylococcus epidermidis ATCC 12228; assay type: functional
Micrococcus luteus = assay: Antibacterial activity against Micrococcus luteus ATCC 10240; assay type: functional
Enterococcus faecalis [20] = assay: Antibacterial activity against Enterococcus faecalis ATCC 29212; assay type: functional
Enterococcus faecalis [21] = assay: Antibacterial activity against Enterococcus faecalis ATCC 33186; assay type: functional
[22] = test system: Corynebacterium diphtheriae; assay: Antibacterial activity against Corynebacterium diphtheriae NCTC 10356; assay type: functional
Bacillus subtilis = assay: Antibacterial activity against Bacillus subtilis ATCC 6633; assay type: functional
Listeria monocytogenes = assay: Antibacterial activity against Listeria monocytogenes; assay type: functional
Bacillus cereus = assay: Antibacterial activity against Bacillus cereus; assay type: functional
Escherichia coli = assay: Antibacterial activity against Escherichia coli ATCC 25922; assay type: functional
Klebsiella pneumoniae = assay: Antibacterial activity against Klebsiella pneumoniae ATCC 700603; assay type: functional
Serratia marcescens = assay: Antibacterial activity against Serratia marcescens ATCC 8100; assay type: functional
Salmonella typhimurium [23] = assay: Antibacterial activity against Salmonella typhimurium ATCC 13311; assay type: functional, Salmonella enterica subsp. enterica serovar Typhimurium; settings: Salmonella enterica
Salmonella enterica = assay: Antibacterial activity against Salmonella choleraesuis ATCC 10708; assay type: functional
Salmonella enteritidis = assay: Antibacterial activity against Salmonella enteritidis; assay type: functional, Salmonella enterica subsp. enterica serovar Enteritidis; settings: Salmonella enterica
Shigella dysenteriae = assay: Antibacterial activity against Shigella dysenteriae; assay type: functional
Morganella morganii = assay: Antibacterial activity against Morganella morganii; assay type: functional
Citrobacter freundii = assay: Antibacterial activity against Citrobacter freundii; assay type: functional
Plesiomonas shigelloides = assay: Antibacterial activity against Plesiomonas shigelloides; assay type: functional
Aeromonas hydrophila = assay: Antibacterial activity against Aeromonas hydrophila; assay type: functional
Stutzerimonas stutzeri = assay: Antibacterial activity against Pseudomonas stutzeri ATCC 17587; assay type: functional
Shewanella putrefaciens = assay: Antibacterial activity against Shewanella putrefaciens ATCC 8071; assay type: functional
[24] = test system: Achromobacter xylosoxidans; assay: Antibacterial activity against Achromobacter xylosoxidans ATCC 2706; assay type: functional
Aspergillus = assay: Antifungal activity against Aspergillus; assay type: functional

## COc1cc(OC)nc(Nc2ccc3cccnc3c2O)n1
Microsporum
  MIC: 3.35 µM (≈ 0.999 µg/mL)
Trichophyton
  MIC: 3.35 µM (≈ 0.999 µg/mL)

## NS(=O)(=O)c1cc(Cl)c2cccnc2c1O
[1]
  Ki: > 100 µM

## Cc1ccccc1OCC(O)COc1cccc2cccnc12 (stereo unspecified)
[2]
  MIC: 23.3 µM (≈ 7.21 µg/mL)

## Brc1cccc(COc2cccc3cccnc23)c1
Aspergillus niger
  MIC: 9.94 µM (≈ 3.12 µg/mL)

## O=C(Nc1cccc(Cl)c1)c1ccc2cccc(O)c2n1
[2]
  MIC: 50 µM (≈ 14.9 µg/mL)

## O=S(=O)(O)c1ccc(O)c2ncccc12
Candida albicans
  MIC: 4.44 µM (≈ 1 µg/mL)
Nakaseomyces glabratus
  MIC: 4.44 µM (≈ 1 µg/mL)

## CCOC(=O)c1cc2c(Br)cc(Br)c(O)c2nc1C
[3]
  IC50: > 100 µM

## N#Cc1ccc(Nc2nc(Oc3cccc4cccnc34)nc(N3CCN(c4ccccn4)CC3)n2)cc1C(F)(F)F
[2]
  MIC: 439 µM (≈ 250 µg/mL)
Candida albicans
  MIC: 9.8 µM (≈ 5.58 µg/mL)

## O=C(O)c1ccc2cccc(O)c2n1
[4]
  IC50: > 10 µM
[5]
  IC50: 10 µM

## O=[N+]([O-])c1cc(CN2CCN(c3ccccc3)CC2)c(O)c2ncccc12
Chlamydia
  MBC: 25 µM (≈ 9.11 µg/mL)

## Oc1cccc2ccc(N3CCCCC3)nc12
[2]
  MIC: > 20 µM

## Oc1c(Cl)cc(Cl)c2ccc(/C=C/c3ccc(/C=C/c4ccc5c(Cl)cc(Cl)c(O)c5n4)cc3)nc12
[2]
  MIC: > 72.2 µM

## O=C(NCCN1OCC(NC(=O)c2ccc3cccc(O)c3n2)C1=O)c1ccc2cccc(O)c2n1 (stereo unspecified)
Chlamydia trachomatis
  MBC: 5 µM (≈ 2.44 µg/mL)

## OC(COc1ccc(Cl)cc1)COc1cccc2cccnc12 (stereo unspecified)
[2]
  MIC: 9.85 µM (≈ 3.25 µg/mL)

## O=C(NOCc1ccccc1)c1ccc2cccc(O)c2n1
[4]
  IC50: 0.011 µM
[6]
  IC50: ≥ 1 µM

## Oc1cccc2ccc(/C=C/c3cccc(F)c3)nc12
[2]
  MIC: 13 µM (≈ 3.45 µg/mL)

## O=C(O)c1ccc2cccnc2c1O
[7]
  IC50: 0.76 µM
[8]
  IC50: 0.74 µM

## O=C(Nc1cccc(C(F)(F)F)c1)c1ccc2cccc(O)c2n1
[2]
  MIC: 24 µM (≈ 7.97 µg/mL)

## Oc1c(Br)cc(Cl)c2cccnc12
[2]
  MIC: 19.3 µM (≈ 5 µg/mL)
[9]
  MIC: 2.51 µM (≈ 0.649 µg/mL)
[10]
  IC50: 5.44 µM
[11]
  IC50: 4.92 µM
[12]
  IC50: 105 µM
[13]
  IC50: 112 µM

## O=C(O)c1cn(C2CC2)c2cc(N3CCNCC3)c(F)cc2c1=O [CIPROFLOXACIN]
Chlamydia trachomatis
  MBC: > 50 µM

## Cc1ccnc(NC(c2ccccc2)c2ccc3cccnc3c2O)c1 (stereo unspecified)
[14]
  IC50: 14.9 µM

## O=C(NCCO[C@H]1O[C@H](CO)[C@@H](O)[C@H](O)[C@@H]1O)c1ccc2cccnc2c1O
Candida albicans
  MIC: 10000 µM (≈ 3940 µg/mL)

## O=C(NNC(c1ccc2cccnc2c1O)c1c(-c2ccccc2)[nH]c2ccc(Cl)cc12)c1ccncc1 (stereo unspecified)
[2]
  MIC: 24 µM (≈ 12.5 µg/mL)

## O=C(NCCO[C@H]1O[C@H](CO)[C@@H](O)[C@H](O)[C@@H]1O)c1ccc(O)c2ncccc12
Candida albicans
  MIC: 5000 µM (≈ 1970 µg/mL)

## O=C(CSc1nnc(COc2cccc3cccnc23)n1-c1ccccc1)Nc1nc2cc([N+](=O)[O-])ccc2s1
Enterococcus faecalis [15]
  MIC: 27.4 µM (≈ 15.6 µg/mL)
Salmonella typhimurium [16]
  MIC: 13.7 µM (≈ 7.8 µg/mL)

## O=C(NCCO[C@@H]1O[C@H](CO)[C@@H](O)[C@H](O)[C@H]1O)c1ccc2cccnc2c1O
Candida albicans
  MIC: 10000 µM (≈ 3940 µg/mL)

## O=C(NCCc1ccccc1)c1ccc2cccc(O)c2n1
[4]
  IC50: > 10 µM

## Oc1c(I)cc(Cl)c2cccnc12 [CLIOQUINOL]
Candida
  MIC: 0.206 µM (≈ 0.0629 µg/mL)
Arthrodermataceae
  MIC: 0.409 µM (≈ 0.125 µg/mL)
[2]
  MIC: 32.7 µM (≈ 10 µg/mL)
Staphylococcus aureus [17]
  MIC: 26.2 µM (≈ 8 µg/mL)
Staphylococcus aureus [18]
  MIC: 26.2 µM (≈ 8 µg/mL)
[19]
  MIC: 26.2 µM (≈ 8 µg/mL)
Micrococcus luteus
  MIC: 26.2 µM (≈ 8 µg/mL)
Enterococcus faecalis [20]
  MIC: 26.2 µM (≈ 8 µg/mL)
Enterococcus faecalis [21]
  MIC: 26.2 µM (≈ 8 µg/mL)
[22]
  MIC: 26.2 µM (≈ 8 µg/mL)
Bacillus subtilis
  MIC: 26.2 µM (≈ 8 µg/mL)
Listeria monocytogenes
  MIC: 26.2 µM (≈ 8 µg/mL)
Bacillus cereus
  MIC: 26.2 µM (≈ 8 µg/mL)
Escherichia coli
  MIC: > 26.2 µM
Klebsiella pneumoniae
  MIC: > 26.2 µM
Serratia marcescens
  MIC: > 26.2 µM
Salmonella typhimurium [23]
  MIC: > 26.2 µM
Salmonella enterica
  MIC: > 26.2 µM
Salmonella enteritidis
  MIC: > 26.2 µM
Shigella dysenteriae
  MIC: > 26.2 µM
Morganella morganii
  MIC: > 26.2 µM
Citrobacter freundii
  MIC: > 26.2 µM
Plesiomonas shigelloides
  MIC: > 26.2 µM
Aeromonas hydrophila
  MIC: > 26.2 µM
Stutzerimonas stutzeri
  MIC: > 26.2 µM
Shewanella putrefaciens
  MIC: > 26.2 µM
[24]
  MIC: > 26.2 µM
[1]
  Ki: > 100 µM
[10]
  IC50: 9.25 µM
[11]
  IC50: 11.2 µM
[12]
  IC50: 84.7 µM
[13]
  IC50: 80.4 µM

## O=C(Nc1ccccc1[N+](=O)[O-])c1ccc2cccc(O)c2n1
[2]
  MIC: 97 µM (≈ 30 µg/mL)

## CC(=O)Oc1c(Cl)cc(Cl)c2cccnc12
[10]
  IC50: 4.87 µM
[11]
  IC50: 4.92 µM

## C=CCONC(=O)c1ccc2cccc(O)c2n1
[4]
  IC50: 0.123 µM

## Oc1ccc(Cl)c2cccnc12 [CLOXYQUIN]
[1]
  Ki: 0.16 µM

## Cc1ccc2ccc(C(=O)NCc3ccc(F)cc3)c(O)c2n1
[2]
  MIC: > 500 µM

## CC(=O)N1CCN(c2nc(Nc3ccc(C#N)c(C(F)(F)F)c3)nc(Oc3cccc4cccnc34)n2)CC1
[2]
  MIC: 117 µM (≈ 62.5 µg/mL)
Aspergillus
  MIC: 9.8 µM (≈ 5.24 µg/mL)

## O=C(Nc1ccc(C(F)(F)F)cc1)c1ccc2cccc(O)c2n1
[2]
  MIC: 24 µM (≈ 7.97 µg/mL)

## O=C(O)c1ccc(O)c2ncccc12
Candida albicans
  MIC: 1250 µM (≈ 236 µg/mL)
